Laboratory results reported in ChEMBL document CHEMBL1201862, “PubChem BioAssay data set” (2004).
Each block holds one compound with its values, some of them ahead of it. Calls of active or inactive are those of the source.

What was measured:
[1] = target: T1, Aryl hydrocarbon receptor (Homo sapiens, UniProt P35869); experiment: Luminescence-based cell-based high throughput dose response assay for activators of the Aryl Hydrocarbon Receptor (AHR). [Related pubchem assays: 2796 (Primary screen (AHR activators in singlicate)), 2845 (Confirmation screen (AHR activators in triplicate)), 434939 (Counterscreen (PXR activators in triplicate)), 2804 (Summary (AHR activators))]; assay type: ADME
T1 sequence (P35869 whole entry): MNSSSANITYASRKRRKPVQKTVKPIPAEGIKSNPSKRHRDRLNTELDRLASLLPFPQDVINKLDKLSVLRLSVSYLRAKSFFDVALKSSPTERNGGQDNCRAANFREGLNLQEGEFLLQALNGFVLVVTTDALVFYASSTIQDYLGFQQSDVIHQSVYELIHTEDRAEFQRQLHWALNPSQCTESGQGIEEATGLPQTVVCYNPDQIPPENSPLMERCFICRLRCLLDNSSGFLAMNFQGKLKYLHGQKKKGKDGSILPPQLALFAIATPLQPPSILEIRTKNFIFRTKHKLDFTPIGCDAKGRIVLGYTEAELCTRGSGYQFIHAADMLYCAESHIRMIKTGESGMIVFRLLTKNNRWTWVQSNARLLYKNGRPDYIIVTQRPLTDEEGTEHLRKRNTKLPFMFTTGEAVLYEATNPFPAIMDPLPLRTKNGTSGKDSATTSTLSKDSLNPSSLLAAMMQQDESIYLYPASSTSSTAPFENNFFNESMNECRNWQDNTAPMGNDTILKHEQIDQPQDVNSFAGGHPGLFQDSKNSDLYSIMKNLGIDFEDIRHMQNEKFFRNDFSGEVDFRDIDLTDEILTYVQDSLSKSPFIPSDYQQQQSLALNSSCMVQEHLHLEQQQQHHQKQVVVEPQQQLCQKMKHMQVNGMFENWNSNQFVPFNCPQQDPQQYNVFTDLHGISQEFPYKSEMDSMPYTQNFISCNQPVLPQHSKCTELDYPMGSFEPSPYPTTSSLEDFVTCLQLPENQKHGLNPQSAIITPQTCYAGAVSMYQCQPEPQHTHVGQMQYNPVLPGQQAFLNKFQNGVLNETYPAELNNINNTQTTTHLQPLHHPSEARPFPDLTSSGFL

[2] = target: Neuropeptide Y receptor type 2 (Homo sapiens, UniProt P49146); assay type: functional, cell-based;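 also: HEK293 cells expressing the receptor and a CNG channel; stimulus was NPY near EC95 followed by isoproterenol to raise cAMP; antagonist potency measured as restoring cAMP signal that NPY suppresses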
Neuropeptide Y receptor type 2, sequence (P49146 whole entry): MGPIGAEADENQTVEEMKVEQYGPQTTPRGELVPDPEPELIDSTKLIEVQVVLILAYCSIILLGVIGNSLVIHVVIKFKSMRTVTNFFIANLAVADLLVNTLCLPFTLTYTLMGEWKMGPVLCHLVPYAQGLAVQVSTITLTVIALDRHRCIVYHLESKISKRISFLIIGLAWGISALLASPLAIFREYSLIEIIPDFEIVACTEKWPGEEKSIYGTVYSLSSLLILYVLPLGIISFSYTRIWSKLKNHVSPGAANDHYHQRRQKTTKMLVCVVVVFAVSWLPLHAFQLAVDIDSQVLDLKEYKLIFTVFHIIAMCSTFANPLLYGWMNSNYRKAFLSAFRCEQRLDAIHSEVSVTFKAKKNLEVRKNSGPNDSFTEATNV

[3] = target: Neuropeptide Y receptor type 1 (Homo sapiens, UniProt P25929); assay type: functional;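 also: HEK293 cells with a CNG channel challenged with NPY then isoproterenol; potency as antagonist that reverses NPY suppression of cAMP signal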
Neuropeptide Y receptor type 1, sequence (P25929 whole entry): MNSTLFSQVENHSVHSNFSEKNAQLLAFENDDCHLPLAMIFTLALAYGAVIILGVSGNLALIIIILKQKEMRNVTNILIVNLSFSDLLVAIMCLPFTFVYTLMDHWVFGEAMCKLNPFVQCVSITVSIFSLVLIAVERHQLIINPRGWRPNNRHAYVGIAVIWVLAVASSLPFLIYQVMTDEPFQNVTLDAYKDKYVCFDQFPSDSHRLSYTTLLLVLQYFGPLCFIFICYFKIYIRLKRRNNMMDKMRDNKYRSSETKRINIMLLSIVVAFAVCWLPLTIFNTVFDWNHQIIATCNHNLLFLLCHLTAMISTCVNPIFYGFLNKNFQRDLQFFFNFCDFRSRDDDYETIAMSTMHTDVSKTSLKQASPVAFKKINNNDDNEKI

[4] = target: Glyceraldehyde-3-phosphate dehydrogenase (Homo sapiens, UniProt P04406)
Glyceraldehyde-3-phosphate dehydrogenase, sequence (P04406 whole entry): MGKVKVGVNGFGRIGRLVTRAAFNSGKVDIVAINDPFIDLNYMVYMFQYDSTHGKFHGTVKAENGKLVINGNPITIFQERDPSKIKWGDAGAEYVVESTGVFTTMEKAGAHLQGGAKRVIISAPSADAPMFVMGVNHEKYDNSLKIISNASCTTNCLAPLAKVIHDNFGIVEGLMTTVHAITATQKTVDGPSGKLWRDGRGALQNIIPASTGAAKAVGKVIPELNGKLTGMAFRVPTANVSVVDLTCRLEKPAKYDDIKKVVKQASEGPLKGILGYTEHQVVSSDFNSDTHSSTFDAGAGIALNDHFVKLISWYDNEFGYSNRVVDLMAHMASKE

[5] = target: Transitional endoplasmic reticulum ATPase (Homo sapiens, UniProt P55072, C522A); experiment: Luminescence counterscreen assay for p97 inhibitors: dose response biochemical high throughput screening assay to identify inhibitors of the C522A mutant p97 ATPase: synthesized compounds. [Related pubchem assays: 1481, 1517, 1551 ]
Transitional endoplasmic reticulum ATPase (Homo sapiens, UniProt P55072, C522A), sequence (P55072 2-806 C522A limits assumed): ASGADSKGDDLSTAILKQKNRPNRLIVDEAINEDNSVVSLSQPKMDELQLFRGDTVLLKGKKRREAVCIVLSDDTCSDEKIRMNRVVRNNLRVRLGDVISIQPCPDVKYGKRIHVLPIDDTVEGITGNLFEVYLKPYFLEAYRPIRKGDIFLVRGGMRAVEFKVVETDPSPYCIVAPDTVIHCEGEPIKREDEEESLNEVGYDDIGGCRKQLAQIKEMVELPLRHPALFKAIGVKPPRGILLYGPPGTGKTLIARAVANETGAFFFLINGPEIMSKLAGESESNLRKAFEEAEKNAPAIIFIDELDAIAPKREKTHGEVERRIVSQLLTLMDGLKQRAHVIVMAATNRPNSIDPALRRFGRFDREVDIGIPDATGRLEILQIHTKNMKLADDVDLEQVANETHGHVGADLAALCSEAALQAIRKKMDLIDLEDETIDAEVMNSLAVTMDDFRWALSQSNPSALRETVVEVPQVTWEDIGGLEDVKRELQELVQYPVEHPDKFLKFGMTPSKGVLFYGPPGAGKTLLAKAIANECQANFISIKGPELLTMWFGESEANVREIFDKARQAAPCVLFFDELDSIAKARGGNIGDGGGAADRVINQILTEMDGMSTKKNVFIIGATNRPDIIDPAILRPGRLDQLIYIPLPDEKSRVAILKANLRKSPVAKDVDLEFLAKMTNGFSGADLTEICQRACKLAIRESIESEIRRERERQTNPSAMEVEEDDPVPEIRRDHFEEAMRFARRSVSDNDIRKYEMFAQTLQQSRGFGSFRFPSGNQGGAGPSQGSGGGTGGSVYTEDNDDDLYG

[6] = target: Transitional endoplasmic reticulum ATPase (Homo sapiens, UniProt P55072); experiment: Luminescence dose response biochemical high throughput screening assay for inhibitors of the p97 ATPase: synthesized compounds. [Related pubchem assays: 1481, 1517 ]
Transitional endoplasmic reticulum ATPase (Homo sapiens, UniProt P55072), sequence (P55072 whole entry): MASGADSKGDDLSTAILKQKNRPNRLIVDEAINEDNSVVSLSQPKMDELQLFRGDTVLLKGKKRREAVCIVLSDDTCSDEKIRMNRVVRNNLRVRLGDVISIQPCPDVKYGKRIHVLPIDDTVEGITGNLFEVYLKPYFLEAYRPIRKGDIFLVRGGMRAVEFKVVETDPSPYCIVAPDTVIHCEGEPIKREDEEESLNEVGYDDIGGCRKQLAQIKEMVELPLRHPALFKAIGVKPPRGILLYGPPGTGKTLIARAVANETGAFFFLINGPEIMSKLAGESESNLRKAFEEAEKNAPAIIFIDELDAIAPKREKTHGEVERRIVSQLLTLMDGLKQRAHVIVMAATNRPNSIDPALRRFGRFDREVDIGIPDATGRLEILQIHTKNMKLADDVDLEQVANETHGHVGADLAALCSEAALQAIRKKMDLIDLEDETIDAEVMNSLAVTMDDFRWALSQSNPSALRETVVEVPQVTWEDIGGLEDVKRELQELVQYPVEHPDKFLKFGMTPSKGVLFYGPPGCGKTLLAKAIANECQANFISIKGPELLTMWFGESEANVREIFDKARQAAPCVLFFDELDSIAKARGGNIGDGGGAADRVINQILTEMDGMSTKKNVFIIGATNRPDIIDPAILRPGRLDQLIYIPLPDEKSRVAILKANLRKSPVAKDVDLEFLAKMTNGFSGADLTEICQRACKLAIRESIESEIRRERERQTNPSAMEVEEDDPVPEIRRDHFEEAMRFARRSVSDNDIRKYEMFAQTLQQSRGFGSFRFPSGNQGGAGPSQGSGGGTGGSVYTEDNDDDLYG

Estrogen receptor beta [7] = target: T2, Estrogen receptor beta (Homo sapiens, UniProt Q92731); experiment: blockers of SRC-3 recruitment to ERβ – biochemical, ELISA, streptavidin-HRP readout, orthogonal assay, confirmation (AID 1060)
T2 sequence (Q92731 whole entry): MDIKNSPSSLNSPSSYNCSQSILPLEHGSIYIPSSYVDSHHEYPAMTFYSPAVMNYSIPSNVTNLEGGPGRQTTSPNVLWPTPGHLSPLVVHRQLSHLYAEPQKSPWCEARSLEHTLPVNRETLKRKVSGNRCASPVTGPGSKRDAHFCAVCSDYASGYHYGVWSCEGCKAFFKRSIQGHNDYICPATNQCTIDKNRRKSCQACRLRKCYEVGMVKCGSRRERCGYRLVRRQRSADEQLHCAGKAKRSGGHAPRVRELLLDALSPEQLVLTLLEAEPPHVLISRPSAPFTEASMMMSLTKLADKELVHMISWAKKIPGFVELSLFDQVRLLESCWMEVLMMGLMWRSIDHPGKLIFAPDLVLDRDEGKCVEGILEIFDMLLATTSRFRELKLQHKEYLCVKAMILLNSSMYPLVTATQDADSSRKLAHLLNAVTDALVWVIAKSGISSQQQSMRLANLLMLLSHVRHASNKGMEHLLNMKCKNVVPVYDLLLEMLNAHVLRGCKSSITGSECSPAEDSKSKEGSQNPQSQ

Estrogen receptor beta [8] = target: T2, Estrogen receptor beta
[9] = target: T3, Carboxy-terminal domain RNA polymerase II polypeptide A small phosphatase 1 (Homo sapiens, UniProt Q9GZU7); experiment: CTDSP1 inhibitors, concentration-response, biochemical, absorbance readout, ultra-high-throughput screen actives (AID 540297); assay type: functional
T3 sequence (Q9GZU7 whole entry): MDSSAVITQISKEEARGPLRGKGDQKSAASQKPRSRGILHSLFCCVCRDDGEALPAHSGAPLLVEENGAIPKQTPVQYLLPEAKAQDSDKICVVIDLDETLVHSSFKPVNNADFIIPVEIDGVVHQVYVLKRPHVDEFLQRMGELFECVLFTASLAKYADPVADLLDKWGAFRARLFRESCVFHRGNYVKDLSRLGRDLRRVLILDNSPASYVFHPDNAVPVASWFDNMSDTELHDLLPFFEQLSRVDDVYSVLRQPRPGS

Bcl-2-like protein 10 = target: T4, Bcl-2-like protein 10 (Homo sapiens, UniProt Q9HD36); experiment: Bcl-B/TR3 peptide binding disruption – biochemical, fluorescence polarization, FITC-TR3 peptide, selectivity assay for Bfl-1 inhibitor project, primary screen (AID 748);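 also: fluorescence polarization from a fluorescein-labelled TR3 peptide binding purified Bcl-B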
T4 sequence (Q9HD36 whole entry): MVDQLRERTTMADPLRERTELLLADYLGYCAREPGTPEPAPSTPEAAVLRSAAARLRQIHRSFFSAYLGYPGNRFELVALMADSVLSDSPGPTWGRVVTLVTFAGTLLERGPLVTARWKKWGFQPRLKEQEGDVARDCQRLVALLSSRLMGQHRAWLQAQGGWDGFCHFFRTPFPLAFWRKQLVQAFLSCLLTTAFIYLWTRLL

[10] = target: Peroxisome proliferator-activated receptor gamma/Nuclear receptor coactivator 2 (Homo sapiens, UniProt P37231); assay type: functional;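 also: agonist potency for raising coactivator recruitment to the receptor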
[11] = target: Peroxisome proliferator-activated receptor gamma/Nuclear receptor coactivator 1 (Homo sapiens, UniProt P37231); assay type: functional;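 also: agonist potency as compounds enhance coactivator SRC-1 recruitment to PPARgamma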
[12] = target: Peroxisome proliferator-activated receptor gamma/Nuclear receptor coactivator 3 (Homo sapiens, UniProt P37231); assay type: functional;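 also: agonist potency for raising coactivator recruitment to the receptor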
HT-1080 = experiment: HT1080 cell viability loss – fluorescence readout (AID 620); assay type: functional, cell-based; settings: Homo sapiens
[13] = target: T5, Oxysterols receptor LXR-beta (Homo sapiens, UniProt P55055); experiment: LXR agonists, Gal4 luciferase reporter, dose response, counter-screen for ssDAF-12 agonist project, cell-based, luminescence, HEK293, S. stercoralis campaign (AID 720737); assay type: functional; settings: read-out: IC50 (the source's name)
T5 sequence (P55055 whole entry): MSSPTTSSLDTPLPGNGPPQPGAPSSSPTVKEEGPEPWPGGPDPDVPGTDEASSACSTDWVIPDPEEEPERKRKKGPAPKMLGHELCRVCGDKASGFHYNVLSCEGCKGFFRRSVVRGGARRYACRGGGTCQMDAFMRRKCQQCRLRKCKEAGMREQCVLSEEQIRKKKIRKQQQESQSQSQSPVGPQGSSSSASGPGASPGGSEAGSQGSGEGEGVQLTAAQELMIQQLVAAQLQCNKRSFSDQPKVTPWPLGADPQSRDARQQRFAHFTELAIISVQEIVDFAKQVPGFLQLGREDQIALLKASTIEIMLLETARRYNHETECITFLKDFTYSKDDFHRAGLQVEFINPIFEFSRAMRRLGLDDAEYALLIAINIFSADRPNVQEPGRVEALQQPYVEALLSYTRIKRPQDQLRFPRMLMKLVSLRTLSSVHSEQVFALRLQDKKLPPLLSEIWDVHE

[14] = Luminescence-based cell-based high throughput dose response assay to identify activators of the DAF-12 from the parasite S. stercoralis (ssDAF-12).; assay type: functional
[15] = target: Protein-tyrosine kinase 2-beta (Homo sapiens, UniProt Q14289);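 also: potency of inhibitors of PYK2 kinase phosphorylation of poly-GT substrate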
Protein-tyrosine kinase 2-beta, sequence (Q14289 whole entry): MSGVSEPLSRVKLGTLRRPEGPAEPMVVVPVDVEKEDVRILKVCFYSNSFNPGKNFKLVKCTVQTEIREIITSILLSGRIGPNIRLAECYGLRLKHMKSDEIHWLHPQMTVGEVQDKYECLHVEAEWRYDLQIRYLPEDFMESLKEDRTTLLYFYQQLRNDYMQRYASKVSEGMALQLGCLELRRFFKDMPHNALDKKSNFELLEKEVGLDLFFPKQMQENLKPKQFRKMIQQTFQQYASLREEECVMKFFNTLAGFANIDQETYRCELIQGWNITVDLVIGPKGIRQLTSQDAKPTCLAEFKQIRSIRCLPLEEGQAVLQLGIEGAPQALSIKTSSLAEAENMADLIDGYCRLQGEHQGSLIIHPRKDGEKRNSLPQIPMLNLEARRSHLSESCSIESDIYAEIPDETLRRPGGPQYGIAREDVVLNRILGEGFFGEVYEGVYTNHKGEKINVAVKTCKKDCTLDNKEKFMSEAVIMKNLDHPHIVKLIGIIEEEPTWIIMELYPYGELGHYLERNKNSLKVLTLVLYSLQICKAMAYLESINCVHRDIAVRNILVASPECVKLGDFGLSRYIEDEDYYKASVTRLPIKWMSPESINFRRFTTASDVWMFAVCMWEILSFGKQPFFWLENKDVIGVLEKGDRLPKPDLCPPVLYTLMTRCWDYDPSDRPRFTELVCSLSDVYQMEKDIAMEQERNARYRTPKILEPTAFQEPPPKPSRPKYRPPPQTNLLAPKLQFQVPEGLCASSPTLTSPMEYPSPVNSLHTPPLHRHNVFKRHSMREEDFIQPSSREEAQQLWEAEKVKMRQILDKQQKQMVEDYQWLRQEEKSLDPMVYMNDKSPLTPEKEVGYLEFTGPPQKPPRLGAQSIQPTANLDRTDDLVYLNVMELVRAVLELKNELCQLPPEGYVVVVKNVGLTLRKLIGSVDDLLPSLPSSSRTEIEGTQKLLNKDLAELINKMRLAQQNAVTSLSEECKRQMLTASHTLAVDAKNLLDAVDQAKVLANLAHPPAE

[16] = target: Luciferin 4-monooxygenase (Photinus pyralis, UniProt P08659); experiment: Counter Screen for Luciferase-based Assay Positives. [Related pubchem assays: 620, 618, 411 ]
Luciferin 4-monooxygenase, sequence (P08659 whole entry): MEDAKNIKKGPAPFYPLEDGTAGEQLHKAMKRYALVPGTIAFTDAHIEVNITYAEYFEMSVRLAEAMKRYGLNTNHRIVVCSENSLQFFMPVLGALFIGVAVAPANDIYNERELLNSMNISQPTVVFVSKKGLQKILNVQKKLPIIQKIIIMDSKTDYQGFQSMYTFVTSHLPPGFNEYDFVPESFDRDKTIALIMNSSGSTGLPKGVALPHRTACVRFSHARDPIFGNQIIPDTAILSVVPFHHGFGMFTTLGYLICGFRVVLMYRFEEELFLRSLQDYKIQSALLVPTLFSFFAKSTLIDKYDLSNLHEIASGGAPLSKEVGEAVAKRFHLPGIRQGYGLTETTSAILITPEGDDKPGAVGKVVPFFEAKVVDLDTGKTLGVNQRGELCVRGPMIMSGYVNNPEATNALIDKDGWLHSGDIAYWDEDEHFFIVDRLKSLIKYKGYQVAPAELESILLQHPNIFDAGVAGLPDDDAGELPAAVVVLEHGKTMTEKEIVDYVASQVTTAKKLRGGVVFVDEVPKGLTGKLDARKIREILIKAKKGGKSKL

[17] = target: T6, Mannose-6-phosphate isomerase (Homo sapiens, UniProt P34949); experiment: MPI enzyme activity inhibition – biochemical, fluorescence intensity, coupled assay, primary screen (AID 1209)
T6 sequence (P34949 whole entry): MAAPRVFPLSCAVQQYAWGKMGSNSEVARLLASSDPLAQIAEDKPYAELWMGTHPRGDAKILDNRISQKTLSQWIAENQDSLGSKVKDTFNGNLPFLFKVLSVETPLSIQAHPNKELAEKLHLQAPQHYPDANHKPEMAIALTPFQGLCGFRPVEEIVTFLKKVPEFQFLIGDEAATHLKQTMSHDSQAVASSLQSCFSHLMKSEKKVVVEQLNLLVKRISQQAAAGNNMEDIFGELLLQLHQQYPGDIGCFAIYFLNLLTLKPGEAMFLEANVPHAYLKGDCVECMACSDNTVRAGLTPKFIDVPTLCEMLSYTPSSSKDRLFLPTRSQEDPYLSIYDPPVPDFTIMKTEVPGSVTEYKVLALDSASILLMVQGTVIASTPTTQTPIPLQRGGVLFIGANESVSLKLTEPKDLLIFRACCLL

SMILES: CCOC(=O)c1oc2ccccc2c1N
EC50 [1]: 7.43 µM (active)

SMILES: CCOC(=O)/C(C#N)=C/c1sc2ccccc2c1-c1ccccc1
IC50 [5]: > 50 µM (not active) | IC50 [6]: > 50 µM (not active)

SMILES: O=C1c2ccccc2C(=O)C1c1ccnc2ccccc12
EC50 (HT-1080): > 50 µM (not active) | EC50 [13]: > 67.5 µM (inactive) | IC50 [14]: > 67.5 µM (inactive) | IC50 [15]: 4.75 µM (active) | EC50 [16]: 3.42 µM (active)

SMILES: Cc1ccc([N+](=O)[O-])c(C)[n+]1C
IC50 [17]: > 50 µM (not active)

Results, then the compound that gave them:

IC50 [2]: 9.22 µM (active) | IC50 [3]: 6.03 µM (active)
SMILES: CN(C)Cc1ccccc1Sc1cccc2ccccc12

IC50 [4]: > 50 µM (inconclusive)
SMILES: C[C@@H]1CN(C2=C(Cl)C(=O)N(c3ccc(C(F)(F)F)cc3)C2=O)CCN1

IC50 [5]: > 50 µM (not active) | IC50 [6]: > 50 µM (not active)
SMILES: Cc1cc(-c2csc(Nc3ccc(C#N)cc3)n2)c(C)n1Cc1ccccc1

IC50 (Estrogen receptor beta [7]): 5.58 µM (active) | IC50 (Estrogen receptor beta [8]): > 50 µM (not active) | IC50 [9]: 2.9 µM (active) | IC50 (Bcl-2-like protein 10): 29.8 µM (active)
SMILES: COc1ccc2c(c1)c(=O)oc1cc(OCC(=O)N3CCc4ccccc4C3)ccc12

EC50 [10]: > 79.4 µM (not active) | EC50 [11]: > 79.4 µM (not active) | EC50 [12]: > 79.4 µM (not active)
SMILES: O=C1c2cccc(OCC(=O)N3CCCc4ccccc43)c2CCN1Cc1ccccc1
